Results from PubChem BioAssay (NCI).
Where “and” joins values, the source holds several entries; their conditions need not be identical. Equal entries are not always repeated.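 Each compound was tested at five concentrations against cells in 96-well plates for 48 hours. GI50 marks 50% less growth. TGI: concentration producing complete growth inhibition.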

How the values were obtained:
Test in all cases: NCI-60 cell line screen, 48 h
A498 renal = system: A498 renal
TK-10 renal = system: TK-10 renal
SK-MEL-5 melanoma = system: SK-MEL-5 melanoma
PC-3 prostate = system: PC-3 prostate
NCI-H226 lung = system: NCI-H226 lung
K-562 leukemia = system: K-562 leukemia
U251 CNS = system: U251 CNS
HOP-62 NSCLC = system: HOP-62 NSCLC
HT29 colon = system: HT29 colon
HCC-2998 colon = system: HCC-2998 colon

Structure (SMILES) | GI50 (A498 renal) | TGI (A498 renal) | GI50 (TK-10 renal) | TGI (TK-10 renal) | GI50 (SK-MEL-5 melanoma) | TGI (SK-MEL-5 melanoma) | GI50 (PC-3 prostate) | TGI (PC-3 prostate) | GI50 (NCI-H226 lung) | TGI (NCI-H226 lung) | GI50 (K-562 leukemia) | TGI (K-562 leukemia) | GI50 (U251 CNS) | TGI (U251 CNS) | GI50 (HOP-62 NSCLC) | TGI (HOP-62 NSCLC) | GI50 (HT29 colon) | TGI (HT29 colon) | GI50 (HCC-2998 colon) | TGI (HCC-2998 colon)
O=C(/C=C/c1ccc([N+](=O)[O-])cc1)c1cccc(Nc2nc(Nc3ccccc3)nc(Nc3ccccc3)n2)c1 | 11.8 µM | 28.1 µM | 54.3 µM | > 100 µM | 1.13 µM | 17.6 µM | 3.15 µM | 30.7 µM | 14.4 µM | 44.9 µM | 2.89 µM | 28.2 µM | 12 µM | > 100 µM | 32.2 µM | > 100 µM | 7.79 µM | > 100 µM | 18.1 µM | 68.6 µM
COc1ccc(C2=Nc3c/c(=C\c4c(O)[nH]c5cc(Cl)ccc45)ccc3=N2)cc1 | 5.24 µM | > 100 µM | 21 µM | 39.3 µM | 10.7 µM | 22.7 µM | 3.18 µM | 28.9 µM | > 100 µM | > 100 µM | 2.18 µM | 11.5 µM | 2.08 µM | 5.64 µM | 12.4 µM | 29 µM | 3.06 µM | 11.4 µM | 10.2 µM | 22.1 µM
COC(=O)/C(=N\Nc1nnc(C)n1N)C(C#N)c1ccccc1 (configuration not stated) |  | > 100 µM |  | > 100 µM |  | > 100 µM |  | > 100 µM |  | > 100 µM |  | > 100 µM |  | > 100 µM |  | > 100 µM |  | > 100 µM |  | > 100 µM
O=C(NOCCO)c1cc(CN2OCCCC2=O)c(F)c(F)c1Nc1ccc(I)cc1F | < 0.01 µM and 0.00948 µM | 0.0355 µM and 0.115 µM |  | > 100 µM | 0.597 µM | 23.9 µM and > 10 µM | 31.7 µM and > 10 µM | > 84.3 µM | 1.89 µM and 9.97 µM | > 100 µM | 1.01 µM and 1.42 µM | > 100 µM | 0.362 µM and 0.479 µM | 23.8 µM and > 10 µM | 0.0195 µM | > 100 µM | < 0.01 µM and 0.0029 µM | > 42.7 µM | < 0.0111 µM and 0.00172 µM | 
Oc1ccc(Cl)cc1/C=N\NC(=S)N/N=C/c1cc(Cl)ccc1O | 2.36 µM | 11.5 µM | 2.68 µM | 34.5 µM | 1.34 µM | 3.88 µM | 3.13 µM | > 100 µM | 2.34 µM | 14.1 µM | 2.63 µM | > 100 µM | 1.08 µM | > 100 µM | 2.47 µM | > 100 µM | 5.13 µM | 54.4 µM | 3.55 µM | 86.8 µM
CC(/C=N/N=C(N)N)=N\N=C(N)N | > 77.9 µM | 1890 µM | 32.3 µM | 813 µM | > 79.5 µM | 604 µM | 40.3 µM | 1300 µM |  | 459 µM | 23.1 µM | 785 µM | 47.7 µM | 403 µM | 14.8 µM | 46.9 µM | 18.6 µM and 17.1 µM | > 58 µM and 1620 µM | 9.52 µM | > 48.3 µM and 62.7 µM
CCCN1CCC=C(c2ccc(Nc3nc(Nc4ccccc4C(N)=O)c4cc[nH]c4n3)c(C)c2)C1 | 11.1 µM | > 25 µM | 4.61 µM | 24.4 µM | 13.2 µM | > 25 µM | > 23.4 µM | > 25 µM | > 17.7 µM | > 25 µM | 4.42 µM | > 22.8 µM | 9.78 µM | > 25 µM | > 20 µM | > 25 µM | 0.407 µM | > 13.2 µM | 5.7 µM | > 25 µM
N#C/C(=C\c1ccc2[nH]ccc2c1)C(=O)c1ccc(O)c(O)c1 |  | > 100 µM |  | > 100 µM |  | > 100 µM |  | > 100 µM |  | > 100 µM |  | > 100 µM |  | > 100 µM |  | > 100 µM |  | > 100 µM |  | > 100 µM
COc1ccc(-c2nc(C(=O)c3ccccc3)n(CC(=O)c3ccc(Cl)cc3)c2-c2ccc(OC)cc2)cc1 | > 100 µM | > 100 µM | > 100 µM | > 100 µM | > 100 µM | > 100 µM | > 100 µM | > 100 µM | > 100 µM | > 100 µM | > 100 µM | > 100 µM | > 100 µM | > 100 µM | > 100 µM | > 100 µM | > 100 µM | > 100 µM | > 100 µM | > 100 µM
CNC(c1ccncc1)C(NC)c1ccncc1 (configuration not stated) |  | > 100 µM |  | > 100 µM |  | > 100 µM |  | > 100 µM |  | > 100 µM |  | > 100 µM |  | > 100 µM |  | > 100 µM |  | > 100 µM |  | > 100 µM
